Experimental data taken from ChEMBL document CHEMBL1141059, “3-(2-Aminoethyl)pyridine analogs as alpha4beta2 nicotinic cholinergic receptor ligands” (Bioorg Med Chem Lett, 2005).

These compounds were tested against Neuronal acetylcholine receptor; alpha4/beta2 (Rattus norvegicus, UniProt P09483+P12390) (assay: Binding affinity for rat brain Nicotinic acetylcholine receptor alpha4-beta2 using [3H]S-(-)-nicotine).
Chain of Neuronal acetylcholine receptor; alpha4/beta2 (P09483 whole entry): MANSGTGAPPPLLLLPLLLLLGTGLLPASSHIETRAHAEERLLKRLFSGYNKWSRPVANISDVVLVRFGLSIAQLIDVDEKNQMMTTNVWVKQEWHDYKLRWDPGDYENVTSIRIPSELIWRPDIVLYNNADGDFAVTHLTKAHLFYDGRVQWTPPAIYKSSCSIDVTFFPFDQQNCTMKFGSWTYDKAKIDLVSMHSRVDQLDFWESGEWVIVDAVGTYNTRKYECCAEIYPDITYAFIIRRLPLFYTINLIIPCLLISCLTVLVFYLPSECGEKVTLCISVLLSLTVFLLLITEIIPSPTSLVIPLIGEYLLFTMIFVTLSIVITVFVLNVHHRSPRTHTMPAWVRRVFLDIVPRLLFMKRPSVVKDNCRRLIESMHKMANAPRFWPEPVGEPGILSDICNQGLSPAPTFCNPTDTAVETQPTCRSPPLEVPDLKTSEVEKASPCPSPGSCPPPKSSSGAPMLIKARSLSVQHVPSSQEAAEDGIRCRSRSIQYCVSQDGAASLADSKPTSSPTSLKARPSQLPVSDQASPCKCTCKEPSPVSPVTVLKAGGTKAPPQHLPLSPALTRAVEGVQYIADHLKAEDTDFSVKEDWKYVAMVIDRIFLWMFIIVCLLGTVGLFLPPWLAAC
Chain of Neuronal acetylcholine receptor; alpha4/beta2 (P12390 whole entry): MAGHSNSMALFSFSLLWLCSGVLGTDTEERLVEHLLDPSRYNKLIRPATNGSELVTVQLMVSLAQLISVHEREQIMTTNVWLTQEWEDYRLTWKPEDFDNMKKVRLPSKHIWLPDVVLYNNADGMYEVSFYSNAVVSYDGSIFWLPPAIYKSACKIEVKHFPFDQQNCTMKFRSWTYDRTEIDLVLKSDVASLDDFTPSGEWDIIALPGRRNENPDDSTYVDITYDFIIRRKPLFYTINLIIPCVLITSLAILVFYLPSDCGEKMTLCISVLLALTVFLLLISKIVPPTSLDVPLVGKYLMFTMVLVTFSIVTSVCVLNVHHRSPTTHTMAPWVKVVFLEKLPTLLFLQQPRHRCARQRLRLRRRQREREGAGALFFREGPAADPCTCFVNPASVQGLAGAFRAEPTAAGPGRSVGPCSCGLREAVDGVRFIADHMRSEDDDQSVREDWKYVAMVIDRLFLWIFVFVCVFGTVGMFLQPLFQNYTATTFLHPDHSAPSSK

Compared with `CCN(C)CCc1cnccc1N`, `CCN(C)CCc1cnccc1OC` is lower in Ki: greater than 10000 nM for the first, 1840 nM for the second.

`CCN(C)CCc1ccc(CCc2ccc(Cl)cc2)nc1` and `CCN(C)CCc1ccc(CCc2ccc(OC)cc2)nc1` cannot be ordered by Ki: greater than 10000 nM for the first, greater than 10000 nM for the second.

`CCN(C)CCc1cncc(Cl)c1` and `CCN(C)CCc1cncc(Br)c1` are within 1.5-fold of each other in Ki: 310 nM for the first, 360 nM for the second.

Going from `CCN(C)CCc1cncc(C)c1` to `CCN(C)CCc1cncc(OC)c1`, the Ki falls from 370 nM to 19 nM (19-fold). The second binds more tightly here.

Going from `CCN(C)CCc1ccc(Br)nc1` to `CCN(C)CCc1ccc(C)nc1`, the Ki rises from 83 nM to 240 nM (2.9-fold).

Work on `CCN(C)CCc1ccc(Cl)nc1` yielded a Ki of 70 nM.
